Target: T1, GluK2 (Rattus norvegicus, UniProt P42260, A518T/I567V/C576V/C595S)
T1 construct: gene Grik2
T1 sequence (P42260 32-908 A518T/I567V/C576V/C595S): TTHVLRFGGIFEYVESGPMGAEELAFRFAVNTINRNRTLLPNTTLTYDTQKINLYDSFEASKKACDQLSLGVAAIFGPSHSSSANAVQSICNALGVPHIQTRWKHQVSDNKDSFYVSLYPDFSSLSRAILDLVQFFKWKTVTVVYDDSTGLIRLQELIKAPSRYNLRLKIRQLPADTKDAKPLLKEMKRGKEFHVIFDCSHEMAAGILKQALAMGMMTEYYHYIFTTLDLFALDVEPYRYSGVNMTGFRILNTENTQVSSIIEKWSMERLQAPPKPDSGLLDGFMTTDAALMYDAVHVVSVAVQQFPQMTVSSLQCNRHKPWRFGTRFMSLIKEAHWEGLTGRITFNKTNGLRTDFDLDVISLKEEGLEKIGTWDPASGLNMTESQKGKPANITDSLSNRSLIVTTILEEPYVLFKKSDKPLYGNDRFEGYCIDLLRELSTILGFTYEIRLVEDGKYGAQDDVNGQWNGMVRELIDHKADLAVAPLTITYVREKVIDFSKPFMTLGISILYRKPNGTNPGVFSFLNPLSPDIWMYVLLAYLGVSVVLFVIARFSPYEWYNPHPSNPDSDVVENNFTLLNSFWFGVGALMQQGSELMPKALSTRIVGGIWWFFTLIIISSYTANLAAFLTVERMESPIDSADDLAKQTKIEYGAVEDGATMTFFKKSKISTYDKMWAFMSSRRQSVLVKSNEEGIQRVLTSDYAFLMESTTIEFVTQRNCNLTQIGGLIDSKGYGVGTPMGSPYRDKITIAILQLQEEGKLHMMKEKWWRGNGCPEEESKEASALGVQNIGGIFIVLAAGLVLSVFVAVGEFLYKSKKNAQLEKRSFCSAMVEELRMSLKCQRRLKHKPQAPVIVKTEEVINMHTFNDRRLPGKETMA
T1 sequence (Q63273 with tags, fused parts or gaps T501A/C559V/C578S/C619I/C813A partner): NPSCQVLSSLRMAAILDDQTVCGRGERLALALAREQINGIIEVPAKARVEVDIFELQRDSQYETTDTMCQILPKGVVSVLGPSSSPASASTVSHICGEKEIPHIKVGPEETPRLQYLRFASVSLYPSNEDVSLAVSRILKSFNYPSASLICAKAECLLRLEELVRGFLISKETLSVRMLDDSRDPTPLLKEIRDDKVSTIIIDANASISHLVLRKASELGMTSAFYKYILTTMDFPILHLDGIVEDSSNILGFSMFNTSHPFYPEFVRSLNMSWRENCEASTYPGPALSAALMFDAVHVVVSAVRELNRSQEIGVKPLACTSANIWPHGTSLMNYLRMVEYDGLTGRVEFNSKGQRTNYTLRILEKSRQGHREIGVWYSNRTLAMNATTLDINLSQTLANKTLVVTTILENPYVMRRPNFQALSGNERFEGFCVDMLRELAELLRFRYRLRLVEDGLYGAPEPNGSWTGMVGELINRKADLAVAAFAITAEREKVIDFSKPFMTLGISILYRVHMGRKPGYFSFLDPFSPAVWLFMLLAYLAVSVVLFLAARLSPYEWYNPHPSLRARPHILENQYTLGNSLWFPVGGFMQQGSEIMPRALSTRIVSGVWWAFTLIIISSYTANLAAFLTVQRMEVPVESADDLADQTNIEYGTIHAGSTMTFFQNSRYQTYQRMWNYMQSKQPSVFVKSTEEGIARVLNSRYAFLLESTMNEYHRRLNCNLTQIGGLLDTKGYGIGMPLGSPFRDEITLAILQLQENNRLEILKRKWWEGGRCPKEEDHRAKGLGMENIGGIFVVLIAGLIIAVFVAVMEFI

## Cc1cn(C[C@H](N)C(=O)O)c(=O)n(Cc2ccsc2C(=O)O)c1=O [UBP310, (S)-1-(2-amino-2-carboxyethyl)-3-(2-carboxythiophene-3-yl-methyl)-5-methylpyrimidine-2,4-dione]
  % current reduction at 0.5 mM: 56.2 ± 21.0 % current reduction at 0.5 mM

— PMC13426457, “Cryo-EM structures of apo, agonist- and antagonist-bound heteromeric kainate receptors” (Science Advances, 2026)
